Measured values from patent US20240033282A1, “METHOD FOR IDENTIFYING AND/OR FOR OBTAINING AN ACTIVE SUBSTANCE FOR THE TREATMENT AND THERAPY OF FAMILIAL AMYOTROPHIC LATERAL SCLEROSIS, AND USE OF AN ACTIVE SUBSTANCE FOR THE TREATMENT OF THIS DISEASE” (Forschungszentrum Juelich GmbH, priority 2020, published 2024).

How the values were obtained:
[1] = test system: uptake of SOD1 aggregates into neuro-2a cells; test: flow cytometric determination of the uptake of fluorescently labeled SOD1 aggregates into neuro-2a cells; type: cell-based; conditions: for uptake of fluorescently labeled SOD1 aggregates after treatment with endocytosis inhibitors: flow cytometry, FIG. 3
[2] = test system: ALS; conditions: clinical studies, compared to placebo, some individuals; cited from earlier work
[3] = test system: prion diseases; conditions: in vivo; cited from earlier work
[4] = test system: uptake of SOD1 aggregates into primary cortical neurons; test: flow cytometric determination of the uptake of fluorescently labeled SOD1 aggregates into primary cortical neurons; type: cell-based; conditions: primary cortical neurons of wild-type mice, treated as for neuro-2a cells, FIG. 7A
Description: In order to investigate whether the results in neuro-2a cells can be expanded to primary cortical neurons, isolated, cultured and treated primary cortical neurons of wild-type mice were treated with heparinase and chondroitinase as previously for neuro-2a cells, before they were exposed to DyLight 488-labeled SOD1 aggregates (FIG. 7A). Likewise, the uptake of SOD1 aggregates after blocking with heparin was tested, as previously carried out for neuro-2a cells (FIG. 7A). The uptake of SOD1 aggregates was again quantified by flow cytometry. […] The “***” or “****” above the bars indicate the statistical significance of the results. “***” corresponds to a significance with p≤0.001 and “****” corresponds to a significance with p≤0.0001 in comparison to the control.

Question: Which “uptake of fluorescently labeled SOD1 aggregates after treatment with endocytosis inhibitors” value (“uptake … with endocytosis inhibitors” for short) ([1]; neuro-2a cells) does the source give for C=C1[C@@H](C)[C@H]2[C@H](Cc3ccccc3)NC(=O)[C@]23[C@H](OC(C)=O)/C=C/[C@@](C)(O)C(=O)[C@@H](C)C/C=C/[C@H]3[C@@H]1O [cytochalasin D] here?
Answer: The value was “significantly inhibited the uptake”.

Question: For methyl-β-cyclodextrin, which “uptake … with endocytosis inhibitors” value ([1]; neuro-2a cells) is on record?
Answer: The value was “significantly reduced the uptake of SOD1 aggregates”.

Question: With CC1=NN(c2ccccc2)C(=O)C1 [Radicava, edaravone] as the molecule, how does the “decrease in bodily function measured by ALSFRS-R” value [2] read?
Answer: The value was “significantly lower decrease in bodily function compared to placebo”.

Question: Which “uptake … with endocytosis inhibitors” value ([1]; neuro-2a cells) does the source give for CCN(c1nc(N)c(C(=O)N=C(N)N)nc1Cl)C(C)C [EIPA, 5-N-ethyl-N-isopropyl amiloride] here?
Answer: The value was “reduced the uptake of SOD1 aggregates significantly”.

Question: For pentosan polysulfate sodium [PPS], which “survival of infected animals” value [3] is on record?
Answer: Its value is “extending the survival of infected animals after intracerebroventricular perfusion in a dose-dependent manner”.

Question: And the “cellular uptake of fluorescently labeled wild-type and mutated SOD1 aggregates after PPS treatment” value ([1]; neuro-2a cells, increasing PPS concentrations, FIG. 5)?
Answer: Its value is “competitively inhibited the cellular uptake of fluorescently labeled wild-type and mutated SOD1 aggregates at non-cytotoxic concentrations”.

Question: Which “uptake … with endocytosis inhibitors” value ([1]; neuro-2a cells) does the source give for Oc1ccc2ccccc2c1SSc1c(O)ccc2ccccc12 [IPA-3, 2,2′-dihydroxy-1,1′-dinaphthyl disulfide] here?
Answer: The value was “reduced the uptake of SOD1 aggregates significantly”.

Question: Which “uptake of DyLight 488-labeled SOD1 aggregates into primary cortical neurons” value [4] does the source give for heparin here?
Answer: Its value is “inhibits uptake of SOD1 aggregates into primary cortical neurons”.

Question: And the “uptake of SOD1 aggregates pre-treated with heparin” value ([1]; aggregates treated at 4° C. with 1 mg/mL heparin for 6 hours, neuro-2a cells incubated 6 hours, FIG. 4B)?
Answer: Its value is “inhibited the uptake of both wild-type and mutated SOD1 aggregates”.

Question: With CN(C)CCCN1c2ccccc2Sc2ccc(Cl)cc21 [chloropromazine, Chlorpromazine] as the molecule, how does the “uptake … with endocytosis inhibitors” value ([1]; neuro-2a cells) read?
Answer: The value was “Neither the chloropromazine treatment nor the genistein treatment inhibited the uptake of SOD1 aggregates significantly”.

Question: With [Na+].[O-][Cl+2]([O-])[O-] [sodium chlorate] as the molecule, how does the “uptake of SOD1 aggregates after sodium chlorate treatment” value [1] read?
Answer: Its value is “reduced the uptake of SOD1 aggregates in a dose-dependent manner”.

Question: With O=C(N/N=C/c1ccc(O)c(O)c1)c1cc2ccccc2cc1O [dynasore] as the molecule, how does the “uptake … with endocytosis inhibitors” value ([1]; neuro-2a cells) read?
Answer: Its value is “inhibited the uptake of SOD1 aggregates”.

Question: Which “uptake … with endocytosis inhibitors” value ([1]; neuro-2a cells) does the source give for O=c1c(-c2ccc(O)cc2)coc2cc(O)cc(O)c12 [genistein, Genistein] here?
Answer: Its value is “Neither the chloropromazine treatment nor the genistein treatment inhibited the uptake of SOD1 aggregates significantly”.
